From patent US11091428B2 (HAPLOGEN GMBH, priority 2016, dated 2021)
Where two headings read alike, the source gives them in different places.

Experiments:
PLA2G16 = target: T1, PLA2G16 (Homo sapiens, UniProt P53816); assay: Enzyme activity assay for PLA2G16 (Red/Green BODIPY PC-A2 fluorescence); format: biochemical; details: His-tagged PLA2G16, 4 min pre-incubation, 2 nM to 50 μM; read-out: IC50 values of the compounds determined in the enzyme activity assay for PLA2G16
T1 construct: Hexa-His (N); made in house; host or cells: E. coli BL21(DE3)
T1 sequence (P53816 1-162): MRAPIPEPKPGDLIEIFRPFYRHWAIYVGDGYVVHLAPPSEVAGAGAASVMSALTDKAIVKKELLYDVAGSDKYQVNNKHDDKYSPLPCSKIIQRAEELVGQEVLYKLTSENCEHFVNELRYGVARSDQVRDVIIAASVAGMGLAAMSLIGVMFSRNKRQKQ
Summary of the method: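 IC50 from non-linear fits of fluorescence rise (480/530 nm, 10 min) after adding Red/Green BODIPY PC-A2 mixed with DOPC/DOPG/cholesterol liposomes. Recombinant His-tagged human enzyme, bacterially expressed, was first exposed to inhibitor (2 nM–50 μM final) for 4 min in 50 mM Tris pH 8.5, 100 mM NaCl, 5 mM glutathione.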

[1] = system: picornaviruses (CVB1, HRV-A2, HRV-A23, EV-68); assay: Anti-picornavirus cytopathic effect (CPE) reduction assay on HeLa H1 cells; format: cell-based; details: Enterovirus B, HeLa H1, 48 h
Summary of the method: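 Cytopathic-effect protection: EC50 from non-linear regression of cell viability (CellTiterBlue, 560/590 nm) 48 h post-infection, scaled between infected and mock-infected vehicle wells. Compound dilutions added to HeLa H1 cells 2 h before virus (MOI causing complete CPE within 2 days), in DMEM + 2% FBS; categories average the four viruses.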

[2] = HeLa H1 cells, 48 h, category from averaging the EC50 values from four picornaviruses (CVB1, HRV-A2, HRV-A23, EV68), read-out: EC50 values of the compounds determined in the anti-picornavirus assay

SMILES	IC50 (PLA2G16) [nM]	EC50 [1, 2] [nM]	EC50 ([1]; read-out: EC50 values of the compounds determined in the anti-picornavirus assay, HeLa H1 cells, 48 h, category from averaging the EC50 values from four picornaviruses (CVB1, HRV-A2, HRV-A23, EV68)) [nM]
CCCC(NS(=O)(=O)c1ccccc1)C(=O)C(=O)NCC1CC1 (stereo not drawn) [FP 217, 3-Benzenesulfonamido-N-(cyclopropylmethyl)-2-oxohexanamide]	< 1000	1000 to 10000	
CC(NS(=O)(=O)c1ccccc1)C(=O)C(=O)NCC1CCCCC1 (stereo not drawn) [FP 218, 3-Benzenesulfonamido-N-(cyclohexylmethyl)-2-oxobutanamide]	< 1000	1000 to 10000	
CC(NS(=O)(=O)c1ccc(F)cc1)C(=O)C(=O)NCC1CC1 (stereo not drawn) [FP 219, N-(Cyclopropylmethyl)-3-(4-fluorobenzenesulfonamido)-2-oxobutanamide]	< 1000	1000 to 10000	
COc1ccccc1S(=O)(=O)NC(C)C(=O)C(=O)NCC1CC1 (stereo not drawn) [FP 220, N-(Cyclopropylmethyl)-3-(2-methoxybenzenesulfonamido)-2-oxobutanamide]	< 1000	1000 to 10000	
CC(C(=O)C(=O)NCC1CC1)N(C)S(=O)(=O)c1ccccc1 (stereo not drawn) [FP 221, N-(Cyclopropylmethyl)-3-(N-methylbenzenesulfonamido)-2-oxobutanamide]	< 1000	> 10000	
CC(C(=O)C(=O)NCC1CC1)N(Cc1ccccc1)S(C)(=O)=O (stereo not drawn) [FP 222, 3-(N-Benzylmethanesulfonamido)-N-(cyclopropylmethyl)-2-oxobutanamide]	< 1000	> 10000	
O=C(NCC1CC1)C(=O)[C@H]1CCC(=O)N1Cc1ccccc1 [FP 224, 2-[(2R)-1-Benzyl-5-oxopyrrolidin-2-yl]-N-(cyclopropylmethyl)-2-oxoacetamide]	< 1000	< 1000	
O=C(NCCc1ccncc1)C(=O)C1CCC(=O)N1Cc1ccccc1 (stereo not drawn) [FP 226, 2-(1-Benzyl-5-oxopyrrolidin-2-yl)-2-oxo-N-[2-(pyridin-4-yl)ethyl]acetamide]	< 1000	1000 to 10000	
O=C(NCCc1cnccn1)C(=O)C1CCC(=O)N1Cc1ccccc1 (stereo not drawn) [FP 227, 2-(1-Benzyl-5-oxopyrrolidin-2-yl)-2-oxo-N-[2-(pyrazin-2-yl)ethyl]acetamide]	< 1000	1000 to 10000	
O=C(NCCCc1ccncc1)C(=O)C1CCC(=O)N1Cc1ccccc1 (stereo not drawn) [FP 228, 2-(1-Benzyl-5-oxopyrrolidin-2-yl)-2-oxo-N-[3-(pyridin-4-yl)propyl]acetamide]	< 1000	1000 to 10000	
O=C(NCCCc1nccs1)C(=O)C1CCC(=O)N1Cc1ccccc1 (stereo not drawn) [FP 229, 2-(1-Benzyl-5-oxopyrrolidin-2-yl)-2-oxo-N-[3-(1,3-thiazol-2-yl)propyl]acetamide]	< 1000	< 1000	
O=C(NCc1ccccn1)C(=O)C1CCC(=O)N1Cc1ccccc1 (stereo not drawn) [FP 230, 2-(1-Benzyl-5-oxopyrrolidin-2-yl)-2-oxo-N-[(pyridin-2-yl)methyl]acetamide]	< 1000	> 10000	
Cc1nc(C)n(CCCNC(=O)C(=O)C2CCC(=O)N2Cc2ccccc2)n1 (stereo not drawn) [FP 231, 2-(1-Benzyl-5-oxopyrrolidin-2-yl)-N-[3-(3,5-dimethyl-1H-1,2,4-triazol-1-yl)propyl]-2-oxoacetamide]	< 1000	> 10000	
O=C(NC1CC1)C(=O)C1CCC(=O)N1Cc1ccc(Cl)c(F)c1 (stereo not drawn) [FP 232, 2-{1-[(4-Chloro-3-fluorophenyl)methyl]-5-oxopyrrolidin-2-yl}-N-cyclopropyl-2-oxoacetamide]	< 1000	1000 to 10000	
N#Cc1ccc(CN2C(=O)CCC2C(=O)C(=O)NCC2CC2)cc1 (stereo not drawn) [FP 233, 2-{1-[(4-Cyanophenyl)methyl]-5-oxopyrrolidin-2-yl}-N-(cyclopropylmethyl)-2-oxoacetamide]	< 1000	1000 to 10000	
O=C(NC1CC1)C(=O)C1CCC(=O)N1Cc1ccc(Cl)cc1F (stereo not drawn) [FP 234, 2-{1-[(4-Chloro-2-fluorophenyl)methyl]-5-oxopyrrolidin-2-yl}-N-cyclopropyl-2-oxoacetamide]	< 1000	1000 to 10000	
O=C(NCC1CCOCC1)C(=O)C1CCC(=O)N1Cc1ccc(Cl)cc1 (stereo not drawn) [FP 235, 2-{1-[(4-Chlorophenyl)methyl]-5-oxopyrrolidin-2-yl}-N-[(oxan-4-yl)methyl]-2-oxoacetamide]	< 1000	1000 to 10000	
O=C(NC1CCC1)C(=O)[C@H]1CCC(=O)N1Cc1ccccc1 [FP 237, 2-[(2R)-1-Benzyl-5-oxopyrrolidin-2-yl]-N-cyclobutyl-2-oxoacetamide]	< 1000	< 1000	

SMILES	IC50 (PLA2G16) [nM]	EC50 [1, 2] [nM]	EC50 ([1]; read-out: EC50 values of the compounds determined in the anti-picornavirus assay, HeLa H1 cells, 48 h, category from averaging the EC50 values from four picornaviruses (CVB1, HRV-A2, HRV-A23, EV68)) [nM]
CC(C)NC(=O)C(=O)[C@H]1CCC(=O)N1Cc1ccccc1 [FP 238, 2-[(2R)-1-Benzyl-5-oxopyrrolidin-2-yl]-2-oxo-N-(propan-2-yl)acetamide]	< 1000	< 1000	
O=C(NC1CCCC1)C(=O)[C@H]1CCC(=O)N1Cc1ccccc1 [FP 239, 2-[(2R)-1-Benzyl-5-oxopyrrolidin-2-yl]-N-cyclopentyl-2-oxoacetamide]	< 1000	< 1000	
O=C(NC1CC1)C(=O)C1CCC(=O)N1Cc1cccc(Cl)c1 (stereo not drawn) [FP 240, 2-{1-[(3-Chlorophenyl)methyl]-5-oxopyrrolidin-2-yl}-N-cyclopropyl-2-oxoacetamide]	< 1000	1000 to 10000	
O=C(NCC1CC1)C(=O)C1CCC(=O)N1Cc1ccc(F)cc1 (stereo not drawn) [FP 241, N-(Cyclopropylmethyl)-2-{1-[(4-fluorophenyl)methyl]-5-oxopyrrolidin-2-yl}-2-oxoacetamide]	< 1000	< 1000	
O=C(NC1CC1)C(=O)C1CCC(=O)N1Cc1ccc(F)cc1 (stereo not drawn) [FP 242, N-Cyclopropyl-2-{1-[(4-fluorophenyl)methyl]-5-oxopyrrolidin-2-yl}-2-oxoacetamide]	< 1000	1000 to 10000	
CC(=O)NCCNC(=O)C(=O)C1CCC(=O)N1Cc1ccc(Cl)cc1 (stereo not drawn) [FP 243, 2-{1-[(4-Chlorophenyl)methyl]-5-oxopyrrolidin-2-yl}-N-(2-acetamidoethyl)-2-oxoacetamide]	1000 to 10000	> 10000	
O=C(NCC1CCCCC1)C(=O)C1CCC(=O)N1Cc1ccc2c(c1)CNC2=O (stereo not drawn) [FP 244, N-(Cyclohexylmethyl)-2-oxo-2-{5-oxo-1-[(1-oxo-2,3-dihydro-1H-isoindol-5-yl)methyl]-pyrrolidin-2-yl}acetamide]	< 1000	1000 to 10000	
O=C(NCC1CCCCC1)C(=O)C1CCC(=O)N1CCC1CCOCC1 (stereo not drawn) [FP 245, N-(Cyclohexylmethyl)-2-{1-[2-(oxan-4-yl)ethyl]-5-oxopyrrolidin-2-yl}-2-oxoacetamide]	< 1000	1000 to 10000	
CC1(NC(=O)C(=O)C2CCC(=O)N2Cc2ccccc2)CC1 (stereo not drawn) [FP 246, 2-(1-Benzyl-5-oxopyrrolidin-2-yl)-N-(1-methylcyclopropyl)-2-oxoacetamide]	< 1000	1000 to 10000	
O=C(NCc1cccc(=O)[nH]1)C(=O)C1CCC(=O)N1Cc1ccc(Cl)cc1 (stereo not drawn) [FP 247, 2-{1-[(4-Chlorophenyl)methyl]-5-oxopyrrolidin-2-yl}-2-oxo-N-[(6-oxo-1,6-dihydropyridin-2-yl)methyl]acetamide]	< 1000	1000 to 10000	
O=C(NCC1CCCCC1)C(=O)C1CCC(=O)N1CC1CCOCC1 (stereo not drawn) [FP 248, N-(Cyclohexylmethyl)-2-{1-[(oxan-4-yl)methyl]-5-oxopyrrolidin-2-yl}-2-oxoacetamide]	< 1000	< 1000	
NC(=O)c1cccc(CN2C(=O)CCC2C(=O)C(=O)NCC2CCCCC2)c1 (stereo not drawn) [FP 249, 3-[(2-{[(Cyclohexylmethyl)carbamoyl]carbonyl}-5-oxopyrrolidin-1-yl)methyl]benzamide]	< 1000		< 1000
NC(=O)c1cccc(CN2C(=O)CCC2C(=O)C(=O)NCC2CC2)c1 (stereo not drawn) [FP 250, 3-[(2-{[(Cyclopropylmethyl)carbamoyl]carbonyl}-5-oxopyrrolidin-1-yl)methyl]benzamide]	< 1000	1000 to 10000	
O=C(NC1CC1)C(=O)C1CCC(=O)N1CCc1ccccc1 (stereo not drawn) [FP 251, N-Cyclopropyl-2-oxo-2-[5-oxo-1-(2-phenylethyl)pyrrolidin-2-yl]acetamide]	< 1000	1000 to 10000	
NC(=O)c1ccc(CN2C(=O)CCC2C(=O)C(=O)NCC2CCCCC2)cc1 (stereo not drawn) [FP 252, 4-[(2-{[(Cyclohexylmethyl)carbamoyl]carbonyl}-5-oxopyrrolidin-1-yl)methyl]benzamide]	< 1000	1000 to 10000	
O=C(NCC1CC1)C(=O)C1CCC(=O)N1CCc1ccccc1 (stereo not drawn) [FP 253, N-(Cyclopropylmethyl)-2-oxo-2-[5-oxo-1-(2-phenylethyl)pyrrolidin-2-yl]]	< 1000	1000 to 10000	
O=C(NC1CCCC1)C(=O)C1CCC(=O)N1CC1CC1 (stereo not drawn) [FP 254, N-Cyclopentyl-2-[1-(cyclopropylmethyl)-5-oxopyrrolidin-2-yl]-2-oxoacetamide]	< 1000	1000 to 10000	
O=C(NCC1CCCC1)C(=O)C1CCC(=O)N1CC1CC1 (stereo not drawn) [FP 255, N-(Cyclopentylmethyl)-2-[1-(cyclopropylmethyl)-5-oxopyrrolidin-2-yl]-2-oxoacetamide]	< 1000	1000 to 10000	
